Active and inactive are the calls of the source. No cut-off for these calls is given here.

In experiment [1] the target is T1, NAD-dependent protein deacylase sirtuin-5, mitochondrial (Homo sapiens, UniProt Q9NXA8). The experiment is described as follows: Inhibition of SIRT5 (unknown origin) at 30 uM using (DABCYL)ISGASE(SuK)DIVHSE(EDANS)G peptide substrate incubated for 1 hrs followed by 1 hr incubation with trypsin and nicotinamide by FRET-based assay.
Target sequence in this assay (Q9NXA8 37-310 limits assumed): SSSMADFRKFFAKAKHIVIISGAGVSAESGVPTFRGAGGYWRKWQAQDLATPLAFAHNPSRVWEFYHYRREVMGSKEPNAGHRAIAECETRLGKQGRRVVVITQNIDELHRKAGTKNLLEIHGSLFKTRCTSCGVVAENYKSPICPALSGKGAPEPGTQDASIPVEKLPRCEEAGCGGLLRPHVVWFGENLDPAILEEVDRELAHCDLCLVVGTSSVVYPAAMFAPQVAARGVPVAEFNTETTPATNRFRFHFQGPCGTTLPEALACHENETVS
Experiment [2] concerns the target T1, NAD-dependent protein deacylase sirtuin-5, mitochondrial. Nature of the experiment: Inhibition of human SIRT5 assessed as reduction in desuccinylase activity using KQTAR(SuK)STGGKA substrate.
Target sequence in this assay (Q9NXA8 whole entry): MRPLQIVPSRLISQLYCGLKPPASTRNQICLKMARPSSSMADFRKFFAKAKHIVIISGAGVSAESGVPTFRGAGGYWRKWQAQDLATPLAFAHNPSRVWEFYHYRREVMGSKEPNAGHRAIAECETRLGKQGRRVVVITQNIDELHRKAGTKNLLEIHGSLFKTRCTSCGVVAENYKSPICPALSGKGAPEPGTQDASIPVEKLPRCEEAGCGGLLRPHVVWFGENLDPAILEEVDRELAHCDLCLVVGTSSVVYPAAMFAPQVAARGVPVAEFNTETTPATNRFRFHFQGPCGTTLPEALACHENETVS

Turning to `NC(=O)c1cccnc1`, the inhibition result in experiment [1] is “inactive”.

Usually IC50 stands for the concentration that inhibits the measured activity by half. With `O=C1CCc2c(ccc3ccccc23)O1` [SPLITOMICIN], the IC50 in experiment [2] was over 100 µM. The inhibition result in experiment [1] is “inactive”.

As for `CC(NC(=O)c1ccccc1/N=C/c1c(O)ccc2ccccc12)c1ccccc1` (stereo not drawn) [SIRTINOL], the IC50 in experiment [2] was over 100 µM. Also, the inhibition entry in experiment [1] was “inactive”.

Turning to `Cc1ccc(C(=O)Nc2ccc(S(=O)(=O)O)c3cc(S(=O)(=O)O)cc(S(=O)(=O)O)c23)cc1NC(=O)c1cccc(NC(=O)Nc2cccc(C(=O)Nc3cc(C(=O)Nc4ccc(S(=O)(=O)O)c5cc(S(=O)(=O)O)cc(S(=O)(=O)O)c45)ccc3C)c2)c1`, in experiment [1], the inhibition result is “Active”.

Consider `N#C/C(=C\c1ccc(-c2cc(Cl)ccc2Cl)o1)C(=O)Nc1cccc2ncccc12`, for which the IC50 in experiment [2] is over 100 µM. For the same compound, the inhibition result in experiment [1] was “inactive”.

The record behind these values is ChEMBL document CHEMBL3400009, “A FRET-based assay for screening SIRT5 specific modulators” (Bioorg Med Chem Lett, 2015).
